Drawing on a melting point compilation (Tetko et al.; mined from patent text by program, amines drawn as free bases though some values may be those of a salt), this text covers melting point for 88 compounds.

A value given as a limit tells only on which side of the number the result lay.

In general, melting point refers to the temperature of the solid-liquid transition. Consider `CCCCCCC(=O)NCCO`, for which the melting point lay within 91 to 93 °C.

Take `Cc1[nH]c(=O)[nH]c1C(=O)CC(C)C`: the melting point was 232 to 233 °C. Consider `O=C1c2c(O)cc(O)cc2OC(c2ccc(O)cc2)C1O` (stereo not drawn), for which the melting point was 221 to 223 °C. The compound `O=C(O)c1ccc(C=Cc2ccc(C(=O)O)cc2)cc1` showed a melting point of more than 280 °C. Compound `O=C(NC1CCC(c2cc(Nc3cccc(C(F)(F)F)c3)n[nH]2)C1)C1CCCCC1` (stereo not drawn) displayed a melting point of 163 °C.

Compound `CCC(=O)c1ccc(OC)c(C)c1C` returned a melting point of 39 to 40 °C. With `CC(CCn1c(=O)[nH]c2ccccc21)N1CCC(CC(=O)c2ccc(F)cc2)CC1` (stereo not drawn), the melting point was 185 °C. In turn, `O=C1Cc2cc3c(cc2C(c2ccc([N+](=O)[O-])cc2Cl)=NN1)OCO3` registered a melting point of 202 to 204 °C. The compound `O=C(O)COc1ccc(C(=O)CN2CCN(c3ccncc3)CC2)cc1` had a melting point of 294 to 296 °C.

On to `O[C@H]1CC[C@@H](CCN2CCC(=C3c4ccc(F)cc4Sc4ccc(C(F)(F)F)cc43)CC2)CC1`, for which the melting point is 147 to 150 °C. In the case of `Cc1ccccc1S(=O)(=O)NC(N)=O`, the melting point lay within 179 to 180 °C. Then `NC(=O)Cc1c(-c2ccccc2)nn(-c2ccccc2)c1-c1ccccc1`, with 123 to 124 °C; and `COC(=O)c1sc2ccccc2c1S(N)(=O)=O`, with 150 to 154 °C; and `C[C@H](N=C(C(=O)N[C@@H](C)c1ccccc1)C(C)(C)C)c1ccccc1`, with 96 to 97 °C. Then `CCCc1nc2c(N)nc3cc(OCc4cccc(N)c4)ccc3c2n1CC(C)C`, with 228 to 230 °C. `COc1cc2c(cc1OC)CN(CCCSc1ccc(NC(=O)c3cccc4c(=O)c5cccc(C)c5[nH]c34)cc1)CC2` had a melting point of 155 °C. On to `CCc1c(-c2ccc(OC)cc2)c2ccc3cc(OC)cc1n32`, for which the melting point fell in the range of 109 to 111 °C.

For the compound `CCCNc1ccc(NC(=O)c2ccc(NC(=O)c3ccc(NCCC)nc3)nc2)nc1`, the melting point is 249 to 250 °C. `C=COC(=O)n1c(SCc2ccc(C)cn2)nc2cscc21` returned a melting point of 78 to 80 °C.

Compound `CC(C(=O)NCc1ccc(C(C)(C)C)cc1)c1ccc(NS(C)(=O)=O)c(C(=O)NCc2ccccc2)c1` (stereo not drawn) yielded a melting point of 79 to 81 °C. The compound `CC(C)c1cccc(C(C)C)c1NC(=O)N(Cc1ccc(N(C)C)cc1)c1ccc(Cl)cc1` registered a melting point of 151 to 152 °C. For `CCOP(=O)(CC(=O)N(CC)c1cn(-c2cccnc2)nc1Cl)OCC`, the melting point is 46 to 48 °C. Turning to `O=C1N(CCCC2CC2)c2ccccc2C12COc1cc3c(cc12)OCO3` (stereo not drawn), the melting point is 111 to 113 °C. For the compound `COCOc1cc(/C=C/S(=O)(=O)NC(=O)OC(C)(C)C)n(Cc2ccc(Cl)cc2Cl)n1`, the melting point is 139 to 140 °C. Turning to `Cn1nnnc1-c1ccc2c(c1)S(=O)(=O)c1ccccc1C2=O`, the melting point lay in the range of 270 to 271 °C. In turn, `COc1ccc(C(C)=O)cc1C12CC3CC(CC(C3)C1)C2` came in with a melting point of 138 to 140 °C. `O=C(Nc1ccc(C(F)(F)F)cc1)NC1CCN(S(=O)(=O)c2cccc(C(F)(F)F)c2)CC1` registered a melting point of 246 to 251 °C. Turning to `Cc1ccc(C2=CCC(=O)CC2)cc1`, the melting point lay within 72 to 74 °C. To `O=C(O)c1ccc(CCCC2SCC(=O)N2CCC2(O)CCCCC2)cc1` (stereo not drawn) belongs 147 to 148 °C.

Compound `CNC(=O)c1ccc(F)c2c1CC(N(CCc1c[nH]c3ccc(F)cc13)CC1CC1)CO2` (stereo not drawn) yielded a melting point of 138 °C. On to `COc1cccc2c1CCC1C(C)=C(O[Si](C)(C)C)CCC21C` (stereo not drawn), for which the melting point was determined as 79 °C. Take `CC1(C)C2CC[C@@]1(C)C(C(=O)N1C(=O)OC(C#CC3CC3)(C(F)(F)F)c3cc(Cl)ccc31)C2` (stereo partly drawn): the melting point lay within 164 to 165 °C.

Consider `CCc1nc2c(C)cc(C)nc2n1Cc1ccc(C(=C(Br)C(=O)O)c2ccccc2)cc1`, for which the melting point fell in the range of 125 to 129 °C. For `S=C1NCC(Cn2cncn2)(c2ccc(Cl)cc2Cl)O1` (stereo not drawn), the melting point fell in the range of 232 to 235 °C. To `O=C(c1cn(C(=O)c2ccc(Cl)cc2)c2ccccc12)C1CSC(c2cccnc2)N1` (stereo not drawn) belongs 80 to 84 °C; to `COC(=O)CCCSc1c2c(=O)n(C)c(=O)n(CC(C)C)c2nn1Cc1cccc2ccccc12`, 100 °C; to `CSC(=S)N1CCN(CC2=C(C)C(=O)C(C)=C(C)C2=O)CC1`, 133 to 135 °C.

`CCOC(=O)C(=O)Nc1ccc2c(c1)CC(=O)N2`: the melting point is 235 to 237 °C. `COc1c2ccccc2c(-c2cc(Br)c(O[C@H](Cc3ccccc3)C(=O)O)c(Br)c2)c2c1sc1ccccc12` came in with a melting point of 102 to 110 °C. Take `COc1ccc(Cl)cc1CCC(=O)O`: the melting point was in the range of 91 to 92 °C. In turn, `COc1cc(C2=Nc3ccc(N4CCCC4)cc3C(=O)C2)ccc1O` came in with a melting point of 310 to 312 °C. To `CN(C)CCCN1N=C2C(=Cc3ccccc3)CS(=O)(=O)CC2C1c1ccccc1` (stereo not drawn) belongs 127 to 129 °C; to `CC=NN(C(=O)c1ccccc1)c1ccc(OC)cc1`, 68 to 70 °C; to `O=C1c2c(O)ccc(O)c2C(=O)c2c(NCCN=Cc3ccccc3)ccc(NCCN=Cc3ccccc3)c21`, 174 to 179 °C. Then `CCCc1c(S)ccc2c(=O)cc(C(=O)O)oc12`, with 206 to 208 °C. To `c1ccc(C(CCc2c[nH]cn2)c2ccccc2)cc1` belongs 115 to 117 °C; to `Nc1ncnc2c1ncn2Cc1nc2ccc(Cl)cc2c(=O)n1-c1ccccc1Cl`, 294 to 295 °C. `CC1(C)CCC(C)(C)c2cc(-c3cc(-c4ccc(C(=O)NO)cc4)ccc3-c3ccccc3)ccc21` came in with a melting point of 105 to 108 °C.

In turn, `CN(CCSc1ccc2ncc([N+](=O)[O-])n2n1)c1ccnc(CO)c1Cl` showed a melting point of 189 to 191 °C. `CC1=C(C(=O)Nc2cc(C(=O)OC(C)C)c(C)cc2F)SCCO1` displayed a melting point of 119 to 122 °C. As for `CCCCC(=O)c1c(-c2ccc3cc(OC(Cc4ccccc4)C(=O)O)ccc3c2)oc2ccccc12` (stereo not drawn), the melting point is 144 to 145 °C. To `CCOc1ccncc1NS(=O)(=O)c1nc2cc(C)nc(OC)n2n1` belongs 184 to 186 °C; to `Cc1nc2c(N)nc3cnccc3c2n1CC(C)C`, 322 to 324 °C. To `O=C(N1CCc2ccc(S(=O)(=O)Cl)cc2C1)C(F)(F)F` belongs 104 to 105 °C; to `CC(=O)OCc1c(S(C)(=O)=O)ccc(C(=O)O)c1Cl`, 219 to 223 °C; to `O=C1[C@H]2CCC[C@H]2N(C(=O)Cn2cnc3ccccc32)c2ccccc2N1Cc1ccccc1` (relative stereo), 188 to 189 °C. Turning to `O=C1C(=CO)c2ccccc2N1c1cccc(Cl)c1`, the melting point was 175 to 178 °C. Consider `COc1ccc(S(=O)(=O)Nc2ccccc2NC(C)=O)cc1`, for which the melting point was in the range of 160 to 161 °C. To `O=C(CNC(=O)OCc1ccc([N+](=O)[O-])cc1)Nc1ccc(C(=O)OCCl)cc1` belongs 163 to 165 °C; to `Oc1cc(CBr)c2oc(-c3ccc(O)c(F)c3)cc2c1`, 269 to 271 °C. With `CCOC(=O)C(C)(C)CCCCOc1cc(C)c(N)c(C)c1`, the melting point lay within 32 to 34 °C.

The compound `CCOC(=O)c1ccc(OCCC2CCc3c(c(OC)c(OC)c(OC)c3OC)CC2)cc1` registered a melting point of 129 to 131 °C. Then `CC(C)OC(=O)c1cc(-n2c(=O)c3c(n(C)c2=O)CCC3)ccc1Cl`, with 148 to 150 °C. In the case of `ClCc1nnc2n1-c1sc(Cl)cc1C(c1ccccc1Cl)=NC2`, the melting point lay in the range of 101 to 103 °C.

In turn, `O=S(=O)(NCCCN1CCOCC1)C(F)(F)F` yielded a melting point of 95 to 97 °C. As for `Cc1nc(-c2sc(-c3ccc(Cl)cc3)nc2C)sc1C(=O)O`, the melting point was 265 to 268 °C.

In the case of `Nc1ccccc1SCC1=NOCN1`, the melting point came to 108 °C. The compound `CCCCCCCCCCCCOc1ccc(C(=O)O)o1` showed a melting point of 122 to 123 °C. On to `COc1ccc(C2=CS(=O)CCC2)cc1OC1CCCC1` (stereo not drawn), for which the melting point is 96 to 98 °C. In turn, `CN1C(=O)N(CCC(NS(=O)(=O)c2ccc(-c3ccc(Cl)cc3)cc2)C(=O)O)C(=O)C1(C)C` (stereo not drawn) gave a melting point of 43 °C. As to `CCCCCCCCN(C)C(=O)C(C)(C)n1cc(C)c(-c2ccccc2)n1`, the melting point was 75 to 78 °C. Consider `O=C(O)C(Oc1ccc(Cl)cc1)c1ccc(Oc2ccc(Cl)cc2)cc1` (stereo not drawn), for which the melting point was in the range of 141 to 142 °C.

With `CCC(C)Nc1ccc2n[nH]c(=O)n2n1` (stereo not drawn), the melting point lay within 214 to 216 °C.

Compound `CCCn1c(=O)c2[nH]c(/C=C/c3cc(Br)c(OC)c(OC)c3)nc2n(CCC)c1=O` yielded a melting point of 277 to 278 °C. For the compound `CC1(CCCCn2c(=O)oc3ccccc32)Cn2cc([N+](=O)[O-])nc2O1` (stereo not drawn), the melting point was 155 to 158 °C. Then `CCn1c(N)c(C(N)=O)c(=O)c2cnc(Nc3ccc(C(=O)N4CCN(C)CC4)cc3)nc21`, with 281 °C. With `CC(C)SCS(=O)C(C)C` (stereo not drawn), the melting point lay in the range of 39 to 40 °C. As to `O=C(O)c1cc(Cl)cc(Oc2cccc(C(F)(F)F)c2)n1`, the melting point was 81 to 82 °C. To `Cc1ccccc1N1CCN(CCc2ccc(N3CCCNC3=O)cc2)CC1` belongs 127 to 128 °C.

For the compound `CCOC(=O)CN(CC=CC(=O)Nc1cc2c(Nc3ccc(F)c(Cl)c3)ncnc2cc1OCC1CC1)CCOC(C)=O`, the melting point fell in the range of 90 to 92 °C. With `CCNC(=O)C(C)n1cc(C)c(-c2ccccc2)n1` (stereo not drawn), the melting point was 78 to 79 °C. To `CC/C=C\C/C=C\C/C=C\CCCCCCCC(=O)Nc1c(OC)cc(OC)cc1OC` belongs 86 to 88 °C; to `Cc1nn(-c2cc(Nc3ccc(N)cc3)c(Cl)cc2Cl)c(=O)n1C(F)F`, 196 to 197 °C; to `O=CNNc1ccccc1`, 138 to 143 °C. Take `COc1cc(Br)cc([N+](=O)[O-])c1N`: the melting point was 137 to 138 °C. On to `CC(C)(C)c1ccc(Cn2cc(C(=O)C(=O)O)c3cc(-c4cccc(Cl)c4)ccc32)cc1`, for which the melting point was 138 to 139 °C. Take `COc1cc2c(cc1OC)C(C)(CC(=O)O)OCC2` (stereo not drawn): the melting point was in the range of 89 to 92 °C. The compound `Cc1ccc(C(=O)NCc2ccc3c(c2)CN(C2CCC(=O)NC2=O)C3=O)cc1Cl` (stereo not drawn) showed a melting point of 229 to 231 °C.
